In US11046668B2, “Small molecule antimicrobials” (Ohio State Innovation Foundation, priority 2016, dated 2021):
Converted amounts (≈) assume the structure as drawn. “Also recorded” adds a separate entry of the source. Marks after values point to notes of the source that are not given here.

Columns and labels:
[1] = test system: Salmonella, E. coli, Listeria and also several commensal and/or probiotic bacteria; assay: Specificity against diverse foodborne pathogens and commensal/probiotic bacteria; format: cell-based; conditions: tested for specificity against foodborne pathogens and commensal/probiotic bacteria
[2] = test system: colon cells (CCD-112CoN, ATCC); assay: Cytotoxicity assay on normal colon cells (sulforhodamine B); format: cell-based, human; conditions: for survival rates of colon cells: at 200 μM; for highest concentrations of each compound to cause lysis of human colon cells, converted to ppm: 200 μM converted to ppm; for toxicity against the colon cells: CCD-112CoN, ATCC, data not shown
[3] = test system: pathogenic E.coli, Listeria strain, C. jejuni and E. coli bacteria; assay: Efficacy of JA-144 when incorporated in edible films (Example 1); format: cell-based
From the text: As described in primary HTS, we screened re-synthesized two compounds for C. jejuni 81-176 growth inhibition. Both re-synthesized compounds effective inhibiting Campylobacter growth at tested concentrations. […] Where positive control (P CNTL includes Campylobacter culture with known antibiotics and negative control (N CNTL) include Camylobacter culture alone. See FIG. 13. Testing the efficacy of JA-144 when incorporated in edible films against pathogenic E.coli, Listeria strain, C. jejuni and E. coli bacteria. The control (CNTL) include edible film alone. JA-144 was effective in reducing most of the pathogenic bacteria by 4 log. See FIG. 14. A cytotoxicity assay for potent semi-synthetic derivative compounds were performed using normal colon cells and sulfohodamine B methods. See FIG. 15. A cytotoxicity assay was performed for two re-synthesized compounds using normal colon cells and sulforhodamine B methods.

E. coli K12 [4] = assay: MIC test in 96 well plate with TTC; format: cell-based; conditions: for antimicrobial activity: starting concentration 50 ppm
L. innocua [5] = assay: MIC test in 96 well plate with TTC; format: cell-based, Listeria innocua; conditions: for antimicrobial activity: starting concentration 50 ppm
C. jejuni [6] = assay: MIC test in 96 well plate with TTC; format: cell-based; conditions: Campylobacter jejuni, 42° C. microaerobically, 24 hours
C. coli [7] = assay: MIC test in 96 well plate with TTC; format: cell-based; conditions: Campylobacter coli, 42° C. microaerobically, 24 hours
E. coli K12 [8] = assay: Log reduction test in broth; conditions: 100 ppm JA-144
Experimental: (§1) After 24 hours incubation, the broth was centrifuged at 4,000 rpm for 5 min at 23° C. with appropriate aseptic precautions. The supernatant was discarded and the pellet resuspended using 1 ml of sterile peptone water and centrifuged again at 4000 rpm for 5 min. This step was repeated until the supernatant was clear. The pellets were then suspended in 1 ml sterile peptone water, and seven consecutive 10-fold dilutions were made to obtain inoculums ready for the plate counts. For the experimental groups with the small molecule compounds, 0.1 ml of diluted broth (dilution of 10^−2; 10^−4; 10^−6) were inoculated on to the plates. For the control groups, 0.1 ml of diluted broth (dilution of 10^−6 and 10^−7) was added to the plates. They were then incubated at 37° C. aerobically (for E. coli and L. innocua), or 42° C. microaerobically (for C. jejuni and C. coli) for 24 hours, and then colony numbers on each plate counted using a Darkfield Colony Counter manufactured by American Optical (Buffalo, N.Y.).

L. innocua [9] = assay: Log reduction test in broth; conditions: 100 ppm JA-144
Experimental: as §1

C. jejuni [10] = assay: Log reduction test in broth; conditions: JA-144 6.25 ppm, TH-4 25 ppm, TH-8 50 ppm, 24 hours; for Log10 CFU/ml reduction: C. jejuni in broth, vs control; for C. jejuni count after treatment: in broth
Experimental: as §1

C. coli [11] = assay: Log reduction test in broth; conditions: JA-144 3.125 ppm, TH-4 12.5 ppm, TH-8 50 ppm, 24 hours; for Log10 CFU/ml reduction: C. coli in broth, vs control; for C. coli count after treatment: in broth
Experimental: as §1

E. coli K12 [12] = assay: Log reduction test in tapioca film
Experimental: (§2) The films prepared above were cut into small pieces that were capable of fitting into 1.5 ml micro-tubes. The weight of each film sample ranged from 5 to 15 mg. The micro-tubes were then exposed to UV light for 18 hours to eliminate possible contamination that may have occurred during the cutting and transferring process. […] After adding the proper amount of bacterial culture, the micro-tubes were placed in an incubator aerobically at 37° C. (for E. coli and L. innocua), or microaerobically at 42° C. (for C. jejuni and C. coli), for 24 hours, respectively.
as §1

L. innocua [13] = assay: Log reduction test in tapioca film
Experimental: as §2, §1

C. jejuni [14] = assay: Log reduction test in tapioca film; conditions: for % Efficacy loss due to incorporation / Log10 CFU/ml reduction: C. jejuni; for % Efficacy loss due to incorporation: film vs broth; for Log10 CFU/ml reduction / C. jejuni count after treatment: in tapioca film, JA-144 6.25 ppm, TH-4 25 ppm, TH-8 50 ppm, 24 hours; for Log10 CFU/ml reduction: vs control
Experimental: as §2, §1

C. coli [15] = assay: Log reduction test in tapioca film; conditions: for % Efficacy loss due to incorporation / Log10 CFU/ml reduction: C. coli; for % Efficacy loss due to incorporation: film vs broth; for Log10 CFU/ml reduction / C. coli count after treatment: in tapioca film, JA-144 3.125 ppm, TH-4 12.5 ppm, TH-8 50 ppm, 24 hours; for Log10 CFU/ml reduction: vs control
Experimental: as §2, §1

E. coli K12 [16] = assay: Bacterial growth curves (optical density); conditions: OD over 24 hours at 37° C.
Experimental: (§3) For E. coli K12 and L. innocua, the bacterial incubations were followed by measurements of the Optical Density (OD) values every 15 minutes in an automated Sunrise™ Tecan Spectrophotometer (Tecan Co.) during an incubation period of 24 hours at 37° C. For C. jejuni, the incubation experimental design was similar, but the measurement period occurred every 4 hours. From the data collected, comparisons were made with the control samples and statistical analyses were used to determine the significance between the means for all observations.

L. innocua [17] = assay: Bacterial growth curves (optical density); conditions: OD over 24 hours at 37° C.
Experimental: as §3

C. jejuni [18] = assay: Bacterial growth curves (optical density); conditions: OD every 4 hours
Experimental: as §3

C. jejuni colonization = assay: In vivo effect on C. jejuni colonization in broiler chickens; conditions: administered orally, in 30% DMSO; three week old broiler chickens
Solubility in water = format: physicochemical
[19] = in tapioca film, 1% w/w JA-144, 24 hours incubation

Q: Which results are given for `OCC1(Cc2ccccc2)CCCN(Cc2cc3ccccc3[nH]2)C1` (stereo not shown) [JA-144]?
A: spectrum of antibacterial activity [1]: broad spectrum effect on other bacteria including E. coli and Listeria; survival rates of colon cells [2]: 99%; highest concentrations of each compound to cause lysis of human colon cells [2]: 200 µM; highest concentrations of each compound to cause lysis of human colon cells, converted to ppm [2]: 66.9 ppm; reduction of most of the pathogenic bacteria [3]: 4 log; MIC (E. coli K12 [4]; Escherichia coli, 37° C. aerobically, 24 hours): 100 µg/mL (≈ 299 µM); MIC (L. innocua [5]; Listeria innocua, 37° C. aerobically, 24 hours): 50 to 100 µg/mL (≈ 149 to 299 µM); MIC (C. jejuni [6]): 3.12 to 6.25 µg/mL (≈ 9.34 to 18.7 µM); MIC (C. coli [7]): 3.12 to 6.25 µg/mL (≈ 9.34 to 18.7 µM); Log10 CFU/ml reduction (E. coli K12 [8]; E. coli K12 in broth, 24 hours, vs control): 5.86 Log10 CFU/ml; E. coli K12 count after treatment (E. coli K12 [8]; in broth, 24 hours incubation): 2.96 ± 0.30^a Log10 CFU/ml; Log10 CFU/ml reduction (L. innocua [9]; L. innocua in broth, 24 hours, vs control): 5.52 Log10 CFU/ml; L. innocua count after treatment (L. innocua [9]; in broth, 24 hours incubation): 3.14 ± 0.11^b Log10 CFU/ml; Log10 CFU/ml reduction (C. jejuni [10]): 6.35 Log10 CFU/ml; C. jejuni count after treatment (C. jejuni [10]): 2.90 ± 0.09^a Log10 CFU/ml; Log10 CFU/ml reduction (C. coli [11]): 6.27 Log10 CFU/ml; C. coli count after treatment (C. coli [11]): 2.93 ± 0.26^a Log10 CFU/ml; Percent efficacy loss due to incorporation (E. coli K12 [12]; E. coli K12, film vs broth): 43.48%; Log10 CFU/ml reduction (E. coli K12 [12]; E. coli K12, tapioca film, 1% w/w JA-144, 24 hours, vs control): 3.31 Log10 CFU/ml; E. coli K12 count after treatment (E. coli K12 [12]; [19]): 5.58 ± 0.08^a Log10 CFU/ml; Percent efficacy loss due to incorporation (L. innocua [13]; L. innocua, film vs broth): 36.42%; Log10 CFU/ml reduction (L. innocua [13]; L. innocua, tapioca film, 1% w/w JA-144, 24 hours, vs control): 3.51 Log10 CFU/ml; L. innocua count after treatment (L. innocua [13]; [19]): 5.22 ± 0.07^b Log10 CFU/ml; % Efficacy loss due to incorporation (C. jejuni [14]): 0.25%; Log10 CFU/ml reduction (C. jejuni [14]): 6.36 Log10 CFU/ml; C. jejuni count after treatment (C. jejuni [14]): 2.86 ± 0.13^a Log10 CFU/ml; % Efficacy loss due to incorporation (C. coli [15]): 2.03%; Log10 CFU/ml reduction (C. coli [15]): 6.14 Log10 CFU/ml; C. coli count after treatment (C. coli [15]): 2.93 ± 0.16^a Log10 CFU/ml; concentration that completely inhibited growth (growth curve) (E. coli K12 [16]): 100 ppm; concentration that completely inhibited growth (growth curve) (L. innocua [17]): 100 ppm; concentration that completely inhibited growth (growth curve) (C. jejuni [18]): 6.25 ppm

Q: Which “spectrum of antibacterial activity” value [1] does the source give for `O=S(=O)(NCc1ccc(F)cc1)c1ccc(Cl)s1` [TH-4] here?
A: specific to C. jejuni and C. coli

Q: And the “toxicity against the colon cells” value [2]?
A: lacked toxicity

Q: And the “survival rates of colon cells” value [2]?
A: 60%

Q: What about the “highest concentrations of each compound to cause lysis of human colon cells” value [2] of the same molecule?
A: 200 µM

Q: What about the “highest concentrations of each compound to cause lysis of human colon cells, converted to ppm” value [2] of the same molecule?
A: 61.1 ppm

Q: What about the “in vivo results in a chicken model” value (C. jejuni colonization) of the same molecule?
A: promising in vivo results

Q: What about the “solubility in water” value (Solubility in water) of the same molecule?
A: not readiliy soluble in water

Q: What about the “antimicrobial activity” value (E. coli K12 [4]) of the same molecule?
A: ineffective; also recorded: no antimicrobialactivity

Q: What about the “antimicrobial activity” value (L. innocua [5]) of the same molecule?
A: ineffective; also recorded: no antimicrobialactivity

Q: What about the MIC (C. jejuni [6]) of the same molecule?
A: 12.5 to 25 µg/mL (≈ 40.9 to 81.8 µM)

Q: And the MIC (C. coli [7])?
A: 12.5 to 25 µg/mL (≈ 40.9 to 81.8 µM)

Q: What about the “Log10 CFU/ml reduction” value (C. jejuni [10]) of the same molecule?
A: 6.37 Log10 CFU/ml

Q: And the “C. jejuni count after treatment” value (C. jejuni [10])?
A: 2.78 ± 0.09^a Log10 CFU/ml

Q: What about the “Log10 CFU/ml reduction” value (C. coli [11]) of the same molecule?
A: 6.16 Log10 CFU/ml

Q: And the “C. coli count after treatment” value (C. coli [11])?
A: 3.21 ± 0.12^a Log10 CFU/ml

Q: What about the “% Efficacy loss due to incorporation” value (C. jejuni [14]) of the same molecule?
A: 6.09%

Q: What about the “Log10 CFU/ml reduction” value (C. jejuni [14]) of the same molecule?
A: 5.99 Log10 CFU/ml

Q: What about the “C. jejuni count after treatment” value (C. jejuni [14]) of the same molecule?
A: 3.16 ± 0.14^a Log10 CFU/ml

Q: And the “% Efficacy loss due to incorporation” value (C. coli [15])?
A: 29.02%

Q: And the “Log10 CFU/ml reduction” value (C. coli [15])?
A: 4.37 Log10 CFU/ml

Q: And the “C. coli count after treatment” value (C. coli [15])?
A: 5.03 ± 0.07^a Log10 CFU/ml

Q: What about the “concentration that completely inhibited growth (growth curve)” value (C. jejuni [18]) of the same molecule?
A: 25 ppm

Q: What does the source list for `Cc1ccccc1CNS(=O)(=O)c1ccc(Cl)s1` [TH-8]?
A: spectrum of antibacterial activity [1]: specific to C. jejuni and C. coli; toxicity against the colon cells [2]: lacked toxicity; survival rates of colon cells [2]: 79%; highest concentrations of each compound to cause lysis of human colon cells [2]: 200 µM; highest concentrations of each compound to cause lysis of human colon cells, converted to ppm [2]: 60.4 ppm; in vivo results in a chicken model (C. jejuni colonization): promising in vivo results; solubility in water (Solubility in water): not readiliy soluble in water; antimicrobial activity (E. coli K12 [4]): ineffective; also recorded: did not show antimicrobialactivity; antimicrobial activity (L. innocua [5]): ineffective; also recorded: did not show antimicrobialactivity; MIC (C. jejuni [6]): 25 to 50 µg/mL (≈ 82.8 to 166 µM); MIC (C. coli [7]): 25 to 50 µg/mL (≈ 82.8 to 166 µM); Log10 CFU/ml reduction (C. jejuni [10]): 5.39 Log10 CFU/ml; C. jejuni count after treatment (C. jejuni [10]): 3.64 ± 0.05^a Log10 CFU/ml; Log10 CFU/ml reduction (C. coli [11]): 5.51 Log10 CFU/ml; C. coli count after treatment (C. coli [11]): 4.11 ± 0.05^a Log10 CFU/ml; % Efficacy loss due to incorporation (C. jejuni [14]): 25.52%; Log10 CFU/ml reduction (C. jejuni [14]): 4.01 Log10 CFU/ml; C. jejuni count after treatment (C. jejuni [14]): 5.10 ± 0.07^a Log10 CFU/ml; % Efficacy loss due to incorporation (C. coli [15]): 48.01%; Log10 CFU/ml reduction (C. coli [15]): 2.87 Log10 CFU/ml; C. coli count after treatment (C. coli [15]): 6.83 ± 0.06^a Log10 CFU/ml; concentration that completely inhibited growth (growth curve) (C. jejuni [18]): 50 ppm
